Assay results reported in ChEMBL document CHEMBL4616632, “Discovery of Cyclic Boronic Acid QPX7728, an Ultrabroad-Spectrum Inhibitor of Serine and Metallo-β-lactamases” (J Med Chem, 2020).

Assays:
[1] = Oral bioavailability in rat at 30 mg/kg administered via gavage by HPLC/MS analysis; format: ADME, organism-based; conditions: in vivo
[2] = AUC in rat at 300 mg/kg, iv administered as infusion for 0.5 hrs by HPLC/MS analysis; format: ADME, organism-based; conditions: in vivo
Enterobacteriaceae [3] = assay: Potentiation of cefepime-induced antibacterial activity against carbapenem-resistant Enterobacteriaceae assessed as cefepime MIC50 at 8 ug/ml by broth microdilution method (Rvb > 32 ug/ml); format: functional
Enterobacterales [4] = assay: Potentiation of meropenem-induced antibacterial activity against Enterobacterales assessed as meropenem MIC90 at 8 ug/ml by broth microdilution method (Rvb > 32 ug/ml); format: functional
Pseudomonas aeruginosa [5] = assay: Potentiation of ceftolozane-induced antibacterial activity against Pseudomonas aeruginosa assessed as ceftolozane MIC50 at 8 ug/ml by broth microdilution method (reference value: 0.5 ug/ml); format: functional
[6] = Clearance in rat at 1000 mg/kg, po administered via gavage by HPLC/MS analysis; format: ADME, organism-based; conditions: in vivo
Enterobacteriaceae [7] = assay: Inhibition of NDM/VIM in carbapenem-resistant Enterobacteriaceae assessed as potentiation of ceftolozane-induced antibacterial activity by measuring ceftolozane MIC50 at 8 ug/ml by broth microdilution method (Rvb > 32 ug/ml)
[8] = Half life in rat at 100 mg/kg, iv administered as infusion for 0.5 hrs by HPLC/MS analysis; format: ADME, organism-based; conditions: in vivo
[9] = target: Matrix metalloproteinase-9 (Homo sapiens, UniProt P14780); assay: Inhibition of mammalian MMP-9 (unknown origin) using McaPLGLDpaAR-NH2 as substrate preincubated for 10 mins followed by substrate addition measured after 30 mins
[10] = Oral bioavailability in rat at 100 mg/kg administered via gavage by HPLC/MS analysis; format: ADME, organism-based; conditions: in vivo
BlaVIM-1 = BlaVIM-1 (Escherichia coli, UniProt Q8GDC1); assay: Inhibition of recombinant Escherichia coli VIM-1 using nitrocefin as substrate preincubated for 10 mins followed by substrate addition measured every 10 secs for 10 mins by spectrophotometrically analysis
[11] = AUC in rat at 100 mg/kg, iv administered as infusion for 0.5 hrs by HPLC/MS analysis; format: ADME, organism-based; conditions: in vivo
Pseudomonas aeruginosa [12] = assay: Potentiation of meropenem-induced antibacterial activity against Pseudomonas aeruginosa assessed as meropenem MIC50 at 8 ug/ml by broth microdilution method (reference value: 0.5 ug/ml); format: functional
[13] = AUC in rat at 100 mg/kg, po administered via gavage by HPLC/MS analysis; format: ADME, organism-based; conditions: in vivo
[14] = Oral bioavailability in rat at 100 mg/kg in fasted condition by HPLC/MS analysis; format: ADME, organism-based; conditions: in vivo
Escherichia coli = assay: Inhibition of Escherichia coli KP308 SHV-5 assessed as minimum concentration of compound required to reduce the MIC of aztreonam to 4 ug/ml
[15] = Half life in rat at 30 mg/kg, po administered via gavage by HPLC/MS analysis; format: ADME, organism-based; conditions: in vivo
Klebsiella pneumoniae [16] = assay: Potentiation of cefepime-induced antibacterial activity against carbapenem-resistant Klebsiella pneumoniae assessed as cefepime MIC90 at 8 ug/ml by broth microdilution method (Rvb > 32 ug/ml); format: functional
Trypsin = Trypsin (Homo sapiens, UniProt P07477+P07478+P35030); assay: Inhibition of mammalian trypsin (unknown origin) using N-Bz-R-AMC as substrate preincubated for 10 mins followed by substrate addition measured after 30 mins; format: protein assay
Klebsiella pneumoniae [17] = assay: Potentiation of meropenem-induced antibacterial activity against carbapenem-resistant Klebsiella pneumoniae assessed as meropenem MIC90 at 8 ug/ml by broth microdilution method (Rvb > 32 ug/ml); format: functional
[18] = Oral bioavailability in rat at 300 mg/kg administered via gavage by HPLC/MS analysis; format: ADME, organism-based; conditions: in vivo
[19] = AUC in rat at 1000 mg/kg, po administered via gavage by HPLC/MS analysis; format: ADME, organism-based; conditions: in vivo
Klebsiella pneumoniae [20] = assay: Potentiation of meropenem-induced bacteriostatic activity against carbapenem-resistant Klebsiella pneumoniae KP1244 harboring KPC-3, SHV-11, and SHV-12 infected in Swiss-Webster mouse model of neutropenic thigh infection assessed as log change in bacterial count in thigh at 0.5 mg/kg, ip administered at 2 hrs interval for 24 hrs starting from 2 hr post infection and measured post last dose (reference value: 0.62 log10CFU); format: functional
[21] = target: Class A carbapenemase KPC-2 (Escherichia coli, UniProt A8DS27); assay: Inhibition of recombinant Escherichia coli KPC-2 using nitrocefin as substrate preincubated for 10 mins followed by substrate addition and measured every 10 secs for 10 mins by spectrophotometric analysis
Chymotrypsin = Chymotrypsin (Homo sapiens, UniProt Q99895+P17538+P40313+Q6GPI1); assay: Inhibition of mammalian chymotrypsin (unknown origin) using Suc-AAPF-AMC as substrate preincubated for 10 mins followed by substrate addition measured after 30 mins; format: protein assay
Klebsiella pneumoniae [22] = assay: Potentiation of meropenem-induced bacteriostatic activity against carbapenem-resistant Klebsiella pneumoniae KP1244 harboring KPC-3, SHV-11, and SHV-12 infected in Swiss-Webster mouse model of neutropenic thigh infection assessed as log change in bacterial count in thigh at 25 mg/kg, ip administered at 2 hrs interval for 24 hrs starting from 2 hr post infection and measured post last dose (reference value: 0.62 log10CFU); format: functional
Enterobacteriaceae [23] = assay: Inhibition of NDM/VIM in carbapenem-resistant Enterobacteriaceae assessed as potentiation of cefepime-induced antibacterial activity by measuring cefepime MIC90 at 8 ug/ml by broth microdilution method (Rvb > 32 ug/ml)
[24] = Cmax in rat at 300 mg/kg, iv administered as infusion for 0.5 hrs by HPLC/MS analysis; format: ADME, organism-based; design: dose 300 mg/kg, route intravenous; conditions: in vivo
[25] = Clearance in rat at 300 mg/kg, iv administered as infusion for 0.5 hrs by HPLC/MS analysis; format: ADME, organism-based; conditions: in vivo
Klebsiella pneumoniae [26] = assay: Potentiation of ceftolozane-induced antibacterial activity against carbapenem-resistant Klebsiella pneumoniae assessed as ceftolozane MIC90 at 8 ug/ml by broth microdilution method (Rvb > 32 ug/ml); format: functional
Enterobacterales [27] = assay: Potentiation of meropenem-induced antibacterial activity against Enterobacterales assessed as meropenem MIC50 at 8 ug/ml by broth microdilution method (reference value: 1 ug/ml); format: functional
Pseudomonas aeruginosa [28] = assay: Potentiation of ceftolozane-induced antibacterial activity against Pseudomonas aeruginosa assessed as ceftolozane MIC90 at 8 ug/ml by broth microdilution method (reference value: 4 ug/ml); format: functional
[29] = Toxicity in rat assessed as clinical changes at 30 to 300 mg/kg, iv administered daily via infusion for 7 days; format: organism-based; conditions: in vivo, 168 h
[30] = Protein binding in rat plasma; format: ADME, cell-free; conditions: read-out: PPB (converted)
[31] = Half life in rat at 100 mg/kg, po administered via gavage by HPLC/MS analysis; format: ADME, organism-based; conditions: in vivo
Enterobacterales [32] = assay: Potentiation of cefepime-induced antibacterial activity against Enterobacterales assessed as cefepime MIC90 at 8 ug/ml by broth microdilution method (Rvb > 32 ug/ml); format: functional
[33] = Cmax in rat at 1000 mg/kg, po administered via gavage by HPLC/MS analysis; format: ADME, organism-based; design: dose 1000 mg/kg, route oral; conditions: in vivo

Matrix metalloproteinase-9, sequence (P14780 whole entry): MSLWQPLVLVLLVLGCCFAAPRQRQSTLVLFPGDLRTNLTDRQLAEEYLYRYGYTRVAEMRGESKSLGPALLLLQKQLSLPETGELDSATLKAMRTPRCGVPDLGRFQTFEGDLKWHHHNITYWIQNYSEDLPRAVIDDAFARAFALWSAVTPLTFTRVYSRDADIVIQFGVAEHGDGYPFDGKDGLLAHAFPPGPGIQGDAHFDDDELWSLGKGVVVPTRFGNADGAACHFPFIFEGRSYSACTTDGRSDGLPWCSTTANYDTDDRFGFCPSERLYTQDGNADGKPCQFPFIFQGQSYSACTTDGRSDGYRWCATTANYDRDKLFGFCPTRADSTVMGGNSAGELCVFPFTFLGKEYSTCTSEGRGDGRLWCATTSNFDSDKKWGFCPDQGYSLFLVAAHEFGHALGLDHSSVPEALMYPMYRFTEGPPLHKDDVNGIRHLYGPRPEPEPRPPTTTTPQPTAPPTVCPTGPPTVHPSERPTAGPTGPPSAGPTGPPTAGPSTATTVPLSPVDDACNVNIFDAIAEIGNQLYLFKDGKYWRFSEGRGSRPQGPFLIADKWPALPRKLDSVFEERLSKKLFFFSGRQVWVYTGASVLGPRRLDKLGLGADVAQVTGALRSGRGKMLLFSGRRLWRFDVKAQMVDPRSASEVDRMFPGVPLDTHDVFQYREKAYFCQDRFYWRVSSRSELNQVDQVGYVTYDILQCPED
Class A carbapenemase KPC-2, sequence (A8DS27 whole entry): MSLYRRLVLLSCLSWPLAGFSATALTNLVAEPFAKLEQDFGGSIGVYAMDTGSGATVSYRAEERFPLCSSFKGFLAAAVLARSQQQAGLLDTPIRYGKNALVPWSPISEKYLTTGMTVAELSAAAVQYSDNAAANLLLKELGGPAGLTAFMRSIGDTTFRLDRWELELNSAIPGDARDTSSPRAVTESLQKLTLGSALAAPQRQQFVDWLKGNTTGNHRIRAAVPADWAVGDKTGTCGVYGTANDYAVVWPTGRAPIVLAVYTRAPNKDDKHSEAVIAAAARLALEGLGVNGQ

Structure (SMILES): O=C(O)c1c(F)ccc2c1OB(O)[C@@H]1C[C@H]21 [XERUBORBACTAM]
- bioavailability [1]: 53.2%
- AUC at 0.5 h [2]: 608 µg·h/mL
- MIC50 (Enterobacteriaceae [3]): 0.125 µg/mL
- MIC90 (Enterobacterales [4]): 0.125 µg/mL
- MIC50 (Pseudomonas aeruginosa [5]): 0.5 µg/mL
- CL/F [6]: 34.2 mL/min/kg
- MIC50 (Enterobacteriaceae [7]): 16 µg/mL
- half-life [8]: 1.46 h
- IC50 [9]: > 1000 µM
- bioavailability [10]: 42.6%
- Ki (BlaVIM-1): 0.008 µM
- AUC at 0.5 h [11]: 221 µg·h/mL
- MIC50 (Pseudomonas aeruginosa [12]): 0.25 µg/mL
- AUC [13]: 89.7 µg·h/mL
- bioavailability [14]: 53%
- MEC (Escherichia coli): 0.3 µg/mL
- half-life [15]: 4.4 h
- MIC90 (Klebsiella pneumoniae [16]): 0.25 µg/mL
- IC50 (Trypsin): > 1000 µM
- MIC90 (Klebsiella pneumoniae [17]): 0.125 µg/mL
- bioavailability [18]: 28%
- AUC [19]: 504 µg·h/mL
- Activity (Klebsiella pneumoniae [20]): -0.03 log10CFU
- Ki [21]: 0.0019 µM
- IC50 (Chymotrypsin): > 1000 µM
- Activity (Klebsiella pneumoniae [22]): -1.15 log10CFU
- MIC90 (Enterobacteriaceae [23]): 1 µg/mL
- Cmax [24]: 544 µg/mL
- clearance [25]: 8.17 mL/min/kg
- MIC90 (Klebsiella pneumoniae [26]): 0.5 µg/mL
- MIC50 (Enterobacterales [27]): ≤ 0.015 µg/mL
- MIC90 (Pseudomonas aeruginosa [28]): 1 µg/mL
- Activity [29]: Toxic
- fraction unbound [30]: 0.15
- half-life [31]: 3.23 h
- MIC90 (Enterobacterales [32]): 0.25 µg/mL
- Cmax [33]: 90.4 µg/mL
